Experimental data as given in patent US9567325B2, “Carboxamide compounds and their use as calpain inhibitors” (AbbVie Deutschland GmbH & Co. KG, priority 2009, dated 2017).

Experiments:
Assay type in all cases: biochemical
[1] = target: T1, calpain-1 isolated from human erythrocytes (Homo sapiens, UniProt P07384); test: Calpain I enzyme inhibition in vitro, kinetic fluorescence assay; settings: apparent Ki calculated from IC50 by Cheng-Prussoff; 100 μM Suc-Leu-Tyr-AMC, pH 7.3, room temperature
T1 construct: 20 nM calpain-1-isolated from human erythrocytes (Calbiochem #208713); purchased Calbiochem 208713; host or cells: human erythrocytes (natural source)
T1 sequence (P07384 1-714): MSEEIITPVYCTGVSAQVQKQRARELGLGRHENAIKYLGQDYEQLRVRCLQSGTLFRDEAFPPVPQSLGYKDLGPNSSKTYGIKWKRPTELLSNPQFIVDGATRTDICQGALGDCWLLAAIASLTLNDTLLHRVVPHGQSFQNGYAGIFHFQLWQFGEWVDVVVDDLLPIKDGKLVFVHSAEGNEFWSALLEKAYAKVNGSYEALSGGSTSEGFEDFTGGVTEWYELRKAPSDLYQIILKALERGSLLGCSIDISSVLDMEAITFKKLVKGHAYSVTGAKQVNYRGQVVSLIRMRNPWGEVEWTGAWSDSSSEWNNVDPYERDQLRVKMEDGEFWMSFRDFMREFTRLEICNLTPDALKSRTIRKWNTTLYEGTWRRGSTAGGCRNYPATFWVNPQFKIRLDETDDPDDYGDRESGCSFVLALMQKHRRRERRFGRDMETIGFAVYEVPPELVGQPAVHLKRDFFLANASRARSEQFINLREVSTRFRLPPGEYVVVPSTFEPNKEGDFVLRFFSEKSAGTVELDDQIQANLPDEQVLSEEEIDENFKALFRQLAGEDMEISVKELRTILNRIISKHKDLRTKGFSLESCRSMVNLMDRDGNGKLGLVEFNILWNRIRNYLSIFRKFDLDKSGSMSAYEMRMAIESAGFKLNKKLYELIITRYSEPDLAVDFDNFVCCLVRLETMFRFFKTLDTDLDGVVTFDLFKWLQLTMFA
T1 sequence (P04632 1-268 partner): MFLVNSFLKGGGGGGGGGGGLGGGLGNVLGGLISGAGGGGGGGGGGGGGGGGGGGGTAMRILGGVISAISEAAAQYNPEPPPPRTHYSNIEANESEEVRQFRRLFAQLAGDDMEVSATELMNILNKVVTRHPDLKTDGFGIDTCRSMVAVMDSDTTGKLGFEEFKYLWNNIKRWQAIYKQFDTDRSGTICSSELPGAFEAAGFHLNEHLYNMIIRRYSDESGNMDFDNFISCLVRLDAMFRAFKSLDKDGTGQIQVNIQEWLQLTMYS
Protocol: (§1) The following solutions and buffers were employed: • HBS (for 40 ml): 800 μl 1M HEPES; 2.16 ml 100 mM KCl; 4.8 ml 1M NaCl; 3.59 ml 5% glucose; 60 μl 1M MgSO4; 400 μl 100 mM Na pyruvate, 28.19 ml water; pH 7.2-7.5. • lysis buffer (for 20 ml): 400 μl 1M Tris pH 8.2; 2.74 ml 1M NaCl; 520 μl 0.5M EDTA; 2 ml 10% triton X-100; 0.8 ml (=1:25) CompletePlus (1 tablet/2 ml H2O); 200 μl 100 mM Pefabloc; 13.34 ml water, pH 8.2. • TBST (10×) (for 11): 100 mM Tris (12.1 g); 1.5M NaCl (87 g); 1% Tween 20 (10 g), adjusted to pH 8. I Enzyme Inhibition In Vitro: • Testing for blockade of the corresponding enzymic activities was carried out by means of kinetic fluorescence assays (excitation 390 nm, emission 460 nm). • Apparent Ki values were calculated from the experimentally determined IC50 values by the Cheng-Prussoff relation assuming a reversible competitive enzyme inhibition. The Km values of the substrates used under the assay conditions indicated above were: 90 μM (Z-Phe-Arg-AMC, cathepsin B), 10 μM (Z-Gly-Pro-Arg-AMC, cathepsin K), 2 μM (Z-Phe-Arg-AMC, cathepsin L), and 30 μM (Z-Val-Val-Arg-AMC, cathepsin S). • The indicated Ki values are averages of the inhibition constants calculated on the basis of 2 to 4 independent dose-effect plots. • The following assays were used: • 1. Calpain I: • 20 nM calpain-1-isolated from human erythrocytes (Calbiochem #208713), 100 μM Suc-Leu-Tyr-AMC (Bachem #1-1355) as substrate in buffer with 62 mM imidazole, 0.3 mM CaCl2, 0.10% CHAPS, 0.05% BSA, 1 mM DTT at pH 7.3 and room temperature. • 2. Cathepsin B: • 0.25 nM cathepsin B—isolated from human liver (Calbiochem #219362), 100 μM Z-Phe-Arg-AMC (Bachem #1-1160) as substrate 50 mM MES, 2 mM EDTA, 0.05% Brij 35, 2.5 mM L-cysteine, pH 6.0, room temperature. • 3. Cathepsin K: • 3 nM cathepsin K-activated from recombinant human procathepsin K from E. coli (Calbiochem #342001), 10 μM Z-Gly-Pro-Arg-AMC (Biomol #P-142) as substrate in 50 mM MES, 2 mM EDTA, 0.05% Brij 35, 2.5 mM L-cysteine, pH 6.0, room temperature. • 4. Cathepsin L: • 1 nM cathepsin L—isolated from human liver (Calbiochem #219402), 2 μM Z-Phe-Arg-AMC (Bachem #1-1160) as substrate in 50 mM MES, 2 mM EDTA, 0.05% Brij 35, 2.5 mM L-cysteine, pH 6.0, room temperature. • 5. Cathepsin S: • 0.5 nM recombinant human cathepsin S from E. coli (Calbiochem #219343), 20 μM Z-Val-Val-Arg-AMC (Bachem #I-1540) as substrate in 50 mM MES, 2 mM EDTA, 0.05% Brij 35, 2.5 mM L-cysteine, pH 6.0, room temperature. • The results of the in vitro determination are indicated in Table 1. The following abbreviations are used in Table 1: • In the “Calpain activity” column, +++ stands for a calpain Ki (Ki(calpain)) of ≦40 nM, and ++ means: 40 nM<Ki(Calpain)≦100 nM and + means 100 nM<Ki(Calpain)≦300 nM. • The “Sel. cat. B” column indicates the Ki(cathepsin B)/Ki(calpain) ratio. In this connection, ++ means a Ki(cathepsin B)/Ki(calpain) ratio of ≧30 and + means 10≦Ki(cathepsin B)/Ki(calpain)<30. • The “Sel. cat. K” column indicates the Ki(cathepsin K)/Ki(calpain) ratio. In this connection, ++ means a Ki(cathepsin K)/Ki(calpain) ratio of ≧30 and + means 10≦Ki(cathepsin K)/Ki(calpain)<30. • The “Sel. cat. L” column indicates the Ki(cathepsin L)/Ki(calpain) ratio. In this connection, ++ means a Ki(cathepsin L)/Ki(calpain) ratio of ≧50 and + means 30≦Ki(cathepsin L)/Ki(calpain)<50. • The “Sel. cat. S” column indicates the Ki(cathepsin S)/Ki(calpain) ratio. In this connection, ++ means a Ki(cathepsin S)/Ki(calpain) ratio of ≧100 and + means 50≦Ki(cathepsin S)/Ki(calpain)<100.

[2] = target: T2, cathepsin K activated from recombinant human procathepsin K (Homo sapiens, UniProt P43235); test: Cathepsin K enzyme inhibition in vitro, kinetic fluorescence assay (selectivity vs calpain); settings: ratio of Ki values; Z-Gly-Pro-Arg-AMC substrate, pH 6.0
T2 construct: purchased Calbiochem 342001; host or cells: E. coli
T2 sequence (P43235 115-329): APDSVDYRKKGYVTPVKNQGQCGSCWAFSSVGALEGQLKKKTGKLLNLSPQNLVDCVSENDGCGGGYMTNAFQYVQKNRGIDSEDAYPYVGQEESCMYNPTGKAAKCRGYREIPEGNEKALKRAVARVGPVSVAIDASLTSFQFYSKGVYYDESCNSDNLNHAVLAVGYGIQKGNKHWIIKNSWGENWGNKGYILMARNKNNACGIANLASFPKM
Protocol: as §1

[3] = target: T3, cathepsin B isolated from human liver (Homo sapiens, UniProt P07858); test: Cathepsin B enzyme inhibition in vitro, kinetic fluorescence assay (selectivity vs calpain); settings: ratio of Ki values; Z-Phe-Arg-AMC substrate, pH 6.0
T3 construct: 0.25 nM cathepsin B—isolated from human liver (Calbiochem #219362); purchased Calbiochem 219362; host or cells: human liver (natural source)
Protocol: as §1

[4] = target: T4, cathepsin L isolated from human liver (Homo sapiens, UniProt P07711); test: Cathepsin L enzyme inhibition in vitro, kinetic fluorescence assay (selectivity vs calpain); settings: ratio of Ki values; Z-Phe-Arg-AMC substrate, pH 6.0
T4 construct: 1 nM cathepsin L—isolated from human liver (Calbiochem #219402); purchased Calbiochem 219402; host or cells: human liver (natural source)
Protocol: as §1

[5] = target: T5, recombinant human cathepsin S (Homo sapiens, UniProt P25774); test: Cathepsin S enzyme inhibition in vitro, kinetic fluorescence assay (selectivity vs calpain); settings: ratio of Ki values; Z-Val-Val-Arg-AMC substrate, pH 6.0
T5 construct: purchased Calbiochem 219343; host or cells: E. coli
Protocol: as §1

T5 sequence (P25774 115-331): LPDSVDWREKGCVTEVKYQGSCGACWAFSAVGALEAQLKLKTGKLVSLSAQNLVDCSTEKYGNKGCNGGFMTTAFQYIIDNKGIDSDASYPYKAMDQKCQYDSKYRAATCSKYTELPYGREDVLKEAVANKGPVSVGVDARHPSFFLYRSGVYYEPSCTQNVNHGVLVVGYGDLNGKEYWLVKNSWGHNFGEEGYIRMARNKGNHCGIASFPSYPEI
T4 sequence (P07711 114-333): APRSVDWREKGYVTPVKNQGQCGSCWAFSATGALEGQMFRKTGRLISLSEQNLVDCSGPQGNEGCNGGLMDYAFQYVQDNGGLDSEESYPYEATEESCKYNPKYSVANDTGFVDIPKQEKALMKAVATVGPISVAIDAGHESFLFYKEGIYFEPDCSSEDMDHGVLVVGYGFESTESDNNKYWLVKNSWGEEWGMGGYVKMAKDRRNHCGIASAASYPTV

Row | Compound | Ki [1] | Sel cat. K (Ki(cathepsin K)/Ki(calpain) ratio) [2] | Sel cat. B (Ki(cathepsin B)/Ki(calpain) ratio) [3] | Sel cat. L (Ki(cathepsin L)/Ki(calpain) ratio) [4] | Sel cat. S (Ki(cathepsin S)/Ki(calpain) ratio) [5]
1 | NC(=O)C(=O)C(Cc1ccccc1)NC(=O)c1cccnc1-c1nc2ccccc2s1 (stereo not drawn) [Example 3, N-(4-Amino-3,4-dioxo-1-phenylbutan-2-yl)-2-(1,3-benzothiazol-2-yl)pyridine-3-carboxamide] | 40 to 100 nM | + (+ means 10≦Ki(cathepsin K)/Ki(calpain)<30) | + (+ means 10≦Ki(cathepsin B)/Ki(calpain)<30) | ++ (++ means a Ki(cathepsin L)/Ki(calpain) ratio of ≧50) | ++ (++ means a Ki(cathepsin S)/Ki(calpain) ratio of ≧100)
2 | NC(=O)C(=O)C(Cc1ccccc1)NC(=O)c1cccnc1-c1nc(-c2ccc(F)cc2)cs1 (stereo not drawn) [Example 4, N-(4-Amino-3,4-dioxo-1-phenylbutan-2-yl)-2-[4-(4-fluorophenyl)-1,3-thiazol-2-yl]pyridine-3-carboxamide] | 40 to 100 nM | + (+ means 10≦Ki(cathepsin K)/Ki(calpain)<30) | + (+ means 10≦Ki(cathepsin B)/Ki(calpain)<30) | ++ (++ means a Ki(cathepsin L)/Ki(calpain) ratio of ≧50) | ++ (++ means a Ki(cathepsin S)/Ki(calpain) ratio of ≧100)
3 | NC(=O)C(=O)C(Cc1ccccc1)NC(=O)c1cccnc1-c1csc(-c2ccc(F)cc2)n1 (stereo not drawn) [Example 5, N-(4-Amino-3,4-dioxo-1-phenylbutan-2-yl)-2-[2-(4-fluorophenyl)-1,3-thiazol-4-yl]pyridine-3-carboxamide] | 40 to 100 nM | – | + (+ means 10≦Ki(cathepsin B)/Ki(calpain)<30) | + (+ means 30≦Ki(cathepsin L)/Ki(calpain)<50) | ++ (++ means a Ki(cathepsin S)/Ki(calpain) ratio of ≧100)
4 | NC(=O)C(=O)C(Cc1ccccc1)NC(=O)c1cccnc1-c1csc(-c2ccccc2)n1 (stereo not drawn) [Example 7, N-(4-Amino-3,4-dioxo-1-phenylbutan-2-yl)-2-(2-phenyl-1,3-thiazol-4-yl)pyridine-3-carboxamide] | ≤ 40 nM | + (+ means 10≦Ki(cathepsin K)/Ki(calpain)<30) | ++ (++ means a Ki(cathepsin B)/Ki(calpain) ratio of ≧30) | ++ (++ means a Ki(cathepsin L)/Ki(calpain) ratio of ≧50) | ++ (++ means a Ki(cathepsin S)/Ki(calpain) ratio of ≧100)

The next lines start with results.

Row | Ki [1] | Compound | Sel cat. K (Ki(cathepsin K)/Ki(calpain) ratio) [2] | Sel cat. B (Ki(cathepsin B)/Ki(calpain) ratio) [3] | Sel cat. L (Ki(cathepsin L)/Ki(calpain) ratio) [4] | Sel cat. S (Ki(cathepsin S)/Ki(calpain) ratio) [5]
5 | 100 to 300 nM | NC(=O)C(=O)C(Cc1ccccc1)NC(=O)c1cccnc1-c1ncc(-c2ccccc2)[nH]1 (stereo not drawn) [Example 2, N-(4-Amino-3,4-dioxo-1-phenylbutan-2-yl)-2-(5-phenyl-1H-imidazol-2-yl)pyridine-3-carboxamide] | + (+ means 10≦Ki(cathepsin K)/Ki(calpain)<30) | – | – | –
6 | ≤ 40 nM | NC(=O)C(=O)C(Cc1ccccc1)NC(=O)c1cccnc1-c1csc(-c2cccc(C(F)(F)F)c2)n1 (stereo not drawn) [Example 6, N-(4-Amino-3,4-dioxo-1-phenylbutan-2-yl)-2-{2-[3-(trifluoromethyl)phenyl]-1,3-thiazol-4-yl}pyridine-3-carboxamide] | + (+ means 10≦Ki(cathepsin K)/Ki(calpain)<30) | ++ (++ means a Ki(cathepsin B)/Ki(calpain) ratio of ≧30) | ++ (++ means a Ki(cathepsin L)/Ki(calpain) ratio of ≧50) | ++ (++ means a Ki(cathepsin S)/Ki(calpain) ratio of ≧100)
7 | 100 to 300 nM | NC(=O)C(=O)C(Cc1ccccc1)NC(=O)c1cccnc1-c1nc2ccccc2o1 (stereo not drawn) [Example 16, N-(4-amino-3,4-dioxo-1-phenylbutan-2-yl)-2-(benzo[d]oxazol-2-yl)nicotinamide] | + (+ means 10≦Ki(cathepsin K)/Ki(calpain)<30) | + (+ means 10≦Ki(cathepsin B)/Ki(calpain)<30) | – | ++ (++ means a Ki(cathepsin S)/Ki(calpain) ratio of ≧100)
